Measurements from PubChem BioAssay (NCI).
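Briefly, cells in 96-well plates were exposed to five compound concentrations for 48 h, and endpoints were estimated by linear interpolation. Abbreviation: GI50, concentration required for 50% inhibition of growth. TGI is the concentration that stops growth completely.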

Key:
Test in all cases: growth of human tumour cells (NCI), 48 h
[1] = tested on: DU-145 prostate
[2] = tested on: CCRF-CEM leukemia
[3] = tested on: MOLT-4 leukemia
[4] = tested on: M14 melanoma
[5] = tested on: HS 578T breast
[6] = tested on: NCI-H23 lung
[7] = tested on: UACC-257 melanoma
[8] = tested on: OVCAR-3 ovarian
[9] = tested on: HOP-92 NSCLC
[10] = tested on: PC-3 prostate

Row | Structure (SMILES) | TGI [1] [µM] | TGI [2] [µM] | TGI [3] [µM] | TGI [4] [µM] | TGI [5] [µM] | TGI [6] [µM] | TGI [7] [µM] | TGI [8] [µM] | TGI [9] [µM] | TGI [10] [µM] | GI50 [2] [µM] | GI50 [3] [µM] | GI50 [5] [µM] | GI50 [6] [µM] | GI50 [9] [µM] | GI50 [1] [µM] | GI50 [4] [µM] | GI50 [7] [µM] | GI50 [8] [µM]
1 | Cc1ccc2c(=O)cc(-c3ccc(Cl)s3)[nH]c2n1 | > 100 | > 100 | > 100 | > 100 | > 22.9 | > 22.9 | > 100 | > 100 | > 100 | > 100 | – | – | – | – | – | – | – | – | –
2 | Nc1ccc(S(=O)(=O)c2ccc(NCN3C(=O)NC(=O)C(=O)C3=O)cc2)cc1 | – | > 100 | > 100 | > 100 | > 100 | > 100 | > 100 | > 100 | > 100 | > 100 | – | – | – | – | – | – | – | – | –
3 | Cc1csc(NC23CC4CC(CC(C4)C2)C3)[n+]1C(P(=O)([O-])O)P(=O)(O)O (stereo not drawn) | > 100 | > 100 | > 100 | > 100 | > 100 | > 100 | > 100 | > 100 | > 100 | > 100 | – | – | – | – | – | – | – | – | –
4 | CC(=C(c1ccccc1)c1ccccc1)N1C(=O)CC(=O)N1C | > 100 | 78.2 | 76.3 | > 100 | 55.4 | > 100 | > 100 | > 100 | > 100 | > 100 | – | – | – | – | – | – | – | – | –
5 | NS(=O)(=O)c1ccc(/C=C/c2ccc(F)cc2)cc1 | > 100 | > 100 | > 100 | > 100 | 77.7 | > 100 | > 100 | 57 | 77.6 | > 100 | 62 | 12.9 | 23.7 | 45.1 | 33.2 | – | – | – | –
6 | COc1cc2ccc(=O)oc2cc1O | – | 328 | 223 | – | – | > 414 | 270 | 330 | > 522 | – | – | – | – | – | – | – | – | – | –
7 | CCNC(=S)N=Nc1c(O)[nH]c2ccc([N+](=O)[O-])cc12 | > 100 | > 100 | > 100 | > 100 | > 100 | > 100 | > 100 | > 100 | > 100 | > 100 | – | – | – | – | – | – | – | – | –
8 | O=c1cc(N2CCCC2)[nH]c(=O)n1Cc1ccccc1 | > 100 | > 100 | > 100 | > 100 | – | > 100 | > 100 | – | > 100 | > 100 | – | – | – | – | – | – | – | – | –
9 | CCOC(=O)CCC(NC(=O)OCc1ccccc1)C(=O)NC(CCC(=O)OCC)C(=O)NC(CCC(=O)OCC)C(=O)NC(CCC(=O)OCC)C(=O)NC(CCC(=O)OCC)C(=O)NC(CCC(=O)OCC)C(=O)NC(CCC(=O)OCC)C(=O)OCC (stereo not drawn) | > 100 | > 100 | > 100 | > 100 | – | > 100 | > 100 | > 100 | – | > 100 | – | – | – | – | – | – | – | – | –
10 | COC(OC)[C@@H]1OC[C@H](n2cnc3c(N)ncnc32)[C@H]1O | > 100 | > 100 | > 100 | > 100 | > 100 | > 100 | > 100 | > 100 | > 100 | > 100 | – | – | – | – | – | – | – | – | –
11 | CC(=O)N1CC(C)(C)c2c(C)c(O)c(C)c(C)c21 | > 100 | > 100 | > 100 | > 100 | > 100 | > 100 | > 100 | > 100 | > 100 | > 100 | – | – | – | – | – | – | – | – | –
12 | O=C1C[C@@H](C(=O)OCc2ccccc2)NC(=O)C[C@@H](C(=O)OCc2ccccc2)NC(=O)C[C@@H](C(=O)OCc2ccccc2)N1 | > 100 | 2.01 | 27.3 | > 100 | 72.3 | > 100 | > 100 | > 100 | > 60.7 | > 100 | – | – | – | – | – | – | – | – | –
13 | CC(NC(=O)C(NC(=O)CNC(=O)OC(C)(C)C)C(C)C)C(=O)Oc1c(Cl)c(Cl)c(Cl)c(Cl)c1Cl (stereo not drawn) | 49.3 | > 100 | > 100 | 39.5 | 50.1 | 29.5 | 44.7 | 28.5 | 41.3 | 32.1 | – | – | – | – | – | – | – | – | –
14 | Cc1ccc(/C(O)=C/c2nc3ccccc3sc2=O)c(C)c1 | > 100 | > 100 | > 100 | > 100 | > 100 | > 100 | > 100 | > 100 | 82.4 | > 100 | – | – | – | – | – | – | – | – | –
15 | O=[N+]([O-])c1ccc2sc(C=Nc3cnccn3)cc2c1 | > 100 | 40.4 | 34.3 | > 100 | 49.5 | > 100 | > 100 | > 100 | > 100 | > 100 | – | – | – | – | – | – | – | – | –
16 | NCCCN(CCCN(C(=O)Nc1ccccc1)c1ccccc1)C(=O)Nc1ccccc1 | > 100 | > 100 | > 100 | 44.8 | > 100 | > 100 | 43.1 | – | 92 | > 100 | – | – | – | – | – | – | – | – | –
17 | COc1c(O)c(C=O)c2c(O)c(-c3c(C)cc4c(C(C)C)c(OC)c(O)c(C=O)c4c3O)c(C)cc2c1C(C)C | – | 37.6 | 27.9 | 22.2 | – | 13.2 | 29 | 10.7 | 8.31 | – | – | – | – | – | – | – | – | – | –
18 | CSCCC(N)C(=O)NCCNc1ccc(NCCNC(=O)C(N)CCSC)c2c1C(=O)c1ccccc1C2=O (stereo not drawn) | 5.4 | – | 4.23 | 12 | 6.85 | 2.32 | 12.7 | 9.44 | 3.4 | 6.02 | – | – | – | – | – | – | – | – | –
19 | CCNCCCn1c2c(c3ccc(Cl)cc3c1=O)C(=O)c1cc(OC)cnc1-2 | 1.56 | 1.75 | 1.62 | 2.06 | 4.31 | 2.47 | 32.9 | 19.6 | 27.2 | – | 0.0239 | 0.0384 | 1.74 | 0.539 | 3.01 | 0.208 | 0.518 | 14.5 | 2.13
20 | O=C1C(Cl)=C(OCCCl)C(=O)c2c(O)ccc(O)c21 | 32.2 | 0.381 | 0.619 | 4.19 | – | 19.8 | 8.01 | 10.9 | 3.12 | 26 | – | – | – | – | – | – | – | – | –
